{"source": "ChEMBL document CHEMBL1201862", "about": "“PubChem BioAssay data set” (2004)", "key": {"[1]": {"target": "Cytochrome P450 2D6 (Homo sapiens, UniProt P10635)", "sequence (P10635 whole entry)": "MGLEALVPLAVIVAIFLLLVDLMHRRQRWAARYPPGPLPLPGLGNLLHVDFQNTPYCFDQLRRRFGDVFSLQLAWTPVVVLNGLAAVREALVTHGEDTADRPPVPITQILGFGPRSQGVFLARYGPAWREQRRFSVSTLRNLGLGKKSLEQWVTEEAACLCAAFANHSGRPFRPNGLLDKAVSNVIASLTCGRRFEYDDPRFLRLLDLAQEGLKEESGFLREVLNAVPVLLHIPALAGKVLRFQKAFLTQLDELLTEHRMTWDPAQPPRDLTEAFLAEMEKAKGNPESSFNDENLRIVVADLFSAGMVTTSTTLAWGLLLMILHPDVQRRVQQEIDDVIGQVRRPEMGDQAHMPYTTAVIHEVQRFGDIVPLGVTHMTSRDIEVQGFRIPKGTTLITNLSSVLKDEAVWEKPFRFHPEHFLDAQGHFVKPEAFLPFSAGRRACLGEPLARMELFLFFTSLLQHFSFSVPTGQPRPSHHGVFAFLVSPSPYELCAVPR"}, "[2]": {"test": "Luminescence Cell-Based Dose Retest to Confirm Inhibitors of Cancer Stem Cells. [Related pubchem assays (depositor defined):AID2717, AID2721]", "format": "functional", "conditions": "Homo sapiens"}, "[3]": {"test": "inhibitors of firefly luciferase expression or activity, dose response, H4 neuroglioma cells, luminescence (AID 1990)", "format": "functional, cell-based"}, "[4]": {"test": "Luminescence Cell-Based Dose Response HTS to Identify Inhibitors of 5'UTR Stem-Loop Driven Prion Protein mRNA Translation in H4 Neuroglioblastoma Cells. [Related pubchem assays: 1827 (Project Summary), 1813 (Primary HTS)]", "format": "functional"}, "[5]": {"test": "inhibitors of SNCA 5'UTR-driven reporter translation, confirmation, H4 neuroglioma cells, luminescence (AID 1988)", "format": "functional, cell-based"}, "[6]": {"target": "T1, Cytochrome P450 1A2 (Homo sapiens, UniProt P05177)", "T1 sequence (P05177 whole entry)": "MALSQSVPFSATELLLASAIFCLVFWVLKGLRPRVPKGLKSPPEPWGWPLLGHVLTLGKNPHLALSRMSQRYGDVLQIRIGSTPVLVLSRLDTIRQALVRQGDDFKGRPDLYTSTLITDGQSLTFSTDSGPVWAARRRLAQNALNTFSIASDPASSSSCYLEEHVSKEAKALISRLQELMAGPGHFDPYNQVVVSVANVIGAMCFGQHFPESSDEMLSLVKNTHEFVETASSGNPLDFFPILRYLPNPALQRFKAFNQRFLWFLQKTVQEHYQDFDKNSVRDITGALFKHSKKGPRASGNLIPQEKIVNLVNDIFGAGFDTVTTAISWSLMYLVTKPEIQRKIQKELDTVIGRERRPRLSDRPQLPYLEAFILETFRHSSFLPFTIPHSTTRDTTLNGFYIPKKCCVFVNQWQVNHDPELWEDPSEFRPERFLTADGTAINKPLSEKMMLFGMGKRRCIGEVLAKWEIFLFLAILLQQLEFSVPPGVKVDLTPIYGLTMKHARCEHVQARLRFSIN"}, "[7]": {"target": "Cytochrome P450 2C9 (Homo sapiens, UniProt P11712)", "sequence (P11712 whole entry)": "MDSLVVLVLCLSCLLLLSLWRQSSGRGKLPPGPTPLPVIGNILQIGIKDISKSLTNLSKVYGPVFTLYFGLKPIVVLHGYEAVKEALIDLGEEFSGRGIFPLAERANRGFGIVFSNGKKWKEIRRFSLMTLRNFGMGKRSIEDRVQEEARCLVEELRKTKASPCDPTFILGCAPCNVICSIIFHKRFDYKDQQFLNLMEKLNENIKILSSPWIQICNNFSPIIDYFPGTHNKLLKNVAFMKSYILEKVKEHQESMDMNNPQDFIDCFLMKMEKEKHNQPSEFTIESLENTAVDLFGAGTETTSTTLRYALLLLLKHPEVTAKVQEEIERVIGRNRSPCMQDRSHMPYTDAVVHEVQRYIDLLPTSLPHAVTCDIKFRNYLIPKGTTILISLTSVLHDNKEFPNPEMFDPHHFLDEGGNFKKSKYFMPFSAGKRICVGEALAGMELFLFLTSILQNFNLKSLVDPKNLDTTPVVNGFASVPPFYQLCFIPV"}, "[8]": {"target": "T2, Heat shock factor protein 1 (Mus musculus, UniProt P38532)", "T2 sequence (P38532 whole entry)": "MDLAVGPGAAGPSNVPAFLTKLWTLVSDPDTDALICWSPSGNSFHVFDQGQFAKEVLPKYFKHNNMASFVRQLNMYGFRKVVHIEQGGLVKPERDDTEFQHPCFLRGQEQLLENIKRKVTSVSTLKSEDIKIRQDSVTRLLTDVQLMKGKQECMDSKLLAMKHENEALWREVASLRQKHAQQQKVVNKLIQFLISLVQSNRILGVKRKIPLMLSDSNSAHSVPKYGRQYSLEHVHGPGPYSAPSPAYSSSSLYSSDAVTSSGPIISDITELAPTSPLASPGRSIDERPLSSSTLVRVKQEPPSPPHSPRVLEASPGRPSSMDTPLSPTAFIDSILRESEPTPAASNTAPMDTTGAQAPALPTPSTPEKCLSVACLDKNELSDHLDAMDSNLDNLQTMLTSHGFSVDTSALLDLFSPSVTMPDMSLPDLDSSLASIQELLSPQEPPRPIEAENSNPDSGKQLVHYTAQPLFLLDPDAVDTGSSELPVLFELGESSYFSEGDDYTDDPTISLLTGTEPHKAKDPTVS", "test": "inhibition of MG132-induced HSE-luciferase signal, confirmation, cell-based, NIH3T3, luminescence, dose retest (AID 2382);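 note: NIH3T3 fibroblasts with HSF1-driven luciferase reporter stressed by proteasome inhibitor MG132; luminescence from HSF1-driven luciferase expression after 8 hours of MG132 stress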", "format": "functional"}, "[9]": {"tested_on": "Streptococcus sp. 'group A'", "test": "growth inhibition of control SK(-) GAS strain, dose response, counter-screen for streptokinase expression inhibitor project, luminescence, kanamycin, BacTiterGlo, confirmation (AID 1900)", "format": "functional, organism-based"}, "[10]": {"target": "T3, Streptokinase A (Streptococcus pyogenes serotype M1, UniProt P10520)", "T3 sequence (P10520 whole entry)": "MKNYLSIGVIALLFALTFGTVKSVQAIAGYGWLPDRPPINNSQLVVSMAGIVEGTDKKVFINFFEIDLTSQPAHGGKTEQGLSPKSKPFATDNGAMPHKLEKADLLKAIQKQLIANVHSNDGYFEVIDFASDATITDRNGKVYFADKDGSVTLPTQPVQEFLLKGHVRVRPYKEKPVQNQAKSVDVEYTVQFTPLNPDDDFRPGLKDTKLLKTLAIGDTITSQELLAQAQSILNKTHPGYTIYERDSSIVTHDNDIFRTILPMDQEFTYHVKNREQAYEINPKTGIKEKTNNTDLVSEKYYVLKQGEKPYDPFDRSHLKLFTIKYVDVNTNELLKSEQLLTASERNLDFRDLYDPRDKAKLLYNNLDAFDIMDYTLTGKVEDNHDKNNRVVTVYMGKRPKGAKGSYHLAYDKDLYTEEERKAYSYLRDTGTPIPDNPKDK", "test": "S. pyogenes streptokinase expression inhibitors, potency, dose response, plasminogen activation absorbance, OD405 (AID 1914);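 note: secreted streptokinase activity via plasminogen activation per viability signal from cell pellet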", "format": "functional, Streptococcus pyogenes M1 GAS"}, "[11]": {"tested_on": "Streptococcus", "test": "Group A Streptococcus viability loss, dose response, counter-screen for streptokinase expression inhibitor project, luminescence, BacTiterGlo (AID 1915);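 note: potency for reduction of bacterial viability or growth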", "format": "functional, organism-based"}, "[12]": {"target": "Cytochrome P450 2C19 (Homo sapiens, UniProt P33261)", "sequence (P33261 whole entry)": "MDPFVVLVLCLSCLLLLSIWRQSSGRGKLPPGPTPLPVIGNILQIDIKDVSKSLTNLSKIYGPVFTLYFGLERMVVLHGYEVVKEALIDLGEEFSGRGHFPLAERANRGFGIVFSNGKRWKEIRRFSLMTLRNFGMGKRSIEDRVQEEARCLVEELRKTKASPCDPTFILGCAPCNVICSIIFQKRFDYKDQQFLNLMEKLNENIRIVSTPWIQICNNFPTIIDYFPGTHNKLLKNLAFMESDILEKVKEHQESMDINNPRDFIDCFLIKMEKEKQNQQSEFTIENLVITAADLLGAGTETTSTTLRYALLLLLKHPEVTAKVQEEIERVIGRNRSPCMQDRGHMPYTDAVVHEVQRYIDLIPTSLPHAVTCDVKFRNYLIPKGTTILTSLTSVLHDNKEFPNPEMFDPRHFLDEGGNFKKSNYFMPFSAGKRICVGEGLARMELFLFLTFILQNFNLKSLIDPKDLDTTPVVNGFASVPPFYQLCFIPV", "test": "Cytochrome panel assay with activity outcomes. Panel member name: p450-cyp2c19 Compounds with AC50 equal or less than 10 uM are considered active", "format": "functional", "conditions": "read-out: AC50"}}, "note": "Calls of active or inactive are those of the source."}
{"smiles": "C/C(CCN1CCCCc2nc(C)c(C)cc21)=N\\O[C@@H](C)c1cc(-c2c(C)cc(C)cc2C)no1", "values": [{"measurement": "AC50", "setting": "[1]", "value": "3.16 µM (inconclusive)"}]}
{"smiles": "COc1cccc(S(=O)(=O)NCc2ccc(C(=O)Nc3cccc(Cl)c3)cc2)c1", "values": [{"measurement": "AC50", "setting": "[2]", "value": "4.31 µM (active)"}]}
{"smiles": "NCCCCCc1nnc(SCc2ccccc2Cl)o1", "values": [{"measurement": "EC50", "setting": "[3]", "value": "14.7 µM (active)"}, {"measurement": "EC50", "setting": "[4]", "value": "15.7 µM (active)"}, {"measurement": "EC50", "setting": "[5]", "value": "12.8 µM (active)"}, {"measurement": "AC50", "setting": "[6]", "value": "28.2 µM (inconclusive)"}, {"measurement": "AC50", "setting": "[7]", "value": "25.1 µM (inconclusive)"}]}
{"smiles": "CCN(CC)CCC(=O)Nc1ccc2c(c1)N(C(=O)CN(CC)CC)c1ccccc1CC2", "values": [{"measurement": "AC50", "setting": "[1]", "value": "15.8 µM (inconclusive)"}]}
{"smiles": "Cc1ccc(CNc2nc(-c3cccs3)nc3ccccc23)cc1", "values": [{"measurement": "AC50", "setting": "[2]", "value": "7 µM (active)"}]}
{"smiles": "Cc1ccc(COc2ccccc2-c2cc(C(=O)N/N=C/c3cccnc3)[nH]n2)cc1", "values": [{"measurement": "AC50", "setting": "[2]", "value": "0.778 µM (active)"}]}
{"smiles": "O=C(Nc1ccc2c(c1)OCCO2)NC1(C(F)(F)F)Oc2ccccc2O1", "values": [{"measurement": "EC50", "setting": "[3]", "value": "> 120 µM (not active)"}, {"measurement": "EC50", "setting": "[4]", "value": "> 120 µM (not active)"}, {"measurement": "EC50", "setting": "[8]", "value": "12.5 µM (active)"}, {"measurement": "EC50", "setting": "[5]", "value": "> 120 µM (not active)"}]}
{"smiles": "Cc1ccc(-c2cc([C@H]3[C@@H]4C=CCC[C@@]4(C)C(=O)N3Cc3ccccc3)ccc2F)cc1", "values": [{"measurement": "EC50", "setting": "[9]", "value": "5.4 µM (active)"}, {"measurement": "EC50", "setting": "[10]", "value": "4.92 µM (active)"}, {"measurement": "EC50", "setting": "[11]", "value": "18 µM (active)"}, {"measurement": "AC50", "setting": "[2]", "value": "3.16 µM (active)"}]}
{"smiles": "CCCc1nc(NCc2ccccc2)c(C#N)c2c1CCCC2", "values": [{"measurement": "EC50", "setting": "[3]", "value": "> 120 µM (not active)"}, {"measurement": "EC50", "setting": "[9]", "value": "14.9 µM (active)"}, {"measurement": "EC50", "setting": "[4]", "value": "> 120 µM (not active)"}, {"measurement": "EC50", "setting": "[5]", "value": "> 120 µM (not active)"}, {"measurement": "EC50", "setting": "[10]", "value": "3.06 µM (active)"}, {"measurement": "EC50", "setting": "[11]", "value": "18.5 µM (active)"}]}
{"smiles": "CCC/C=C(\\CCC)C(NP(=O)(c1ccccc1)c1ccccc1)c1ccccc1", "note": "(stereo not drawn)", "values": [{"measurement": "AC50", "setting": "[12]", "value": "20 µM (inconclusive)"}, {"measurement": "AC50", "setting": "[1]", "value": "39.8 µM (inconclusive)"}, {"measurement": "AC50", "setting": "[6]", "value": "15.8 µM (inconclusive)"}, {"measurement": "AC50", "setting": "[7]", "value": "25.1 µM (inconclusive)"}]}
{"smiles": "Cc1c(C2(O)CCCCC2)[nH]c2ccc(C(F)(F)F)cc12", "values": [{"measurement": "AC50", "setting": "[2]", "value": "5.63 µM (active)"}]}
{"smiles": "O=C(Nc1ccccc1)OCc1cc(-c2ccc(Cl)cc2)on1", "values": [{"measurement": "AC50", "setting": "[1]", "value": "3.16 µM (inconclusive)"}]}
{"smiles": "CC(O)(CS(=O)(=O)Cc1ccc(Cl)cc1)C(=O)Nc1cccc(C(F)(F)F)c1", "note": "(stereo not drawn)", "values": [{"measurement": "AC50", "setting": "[1]", "value": "15.8 µM (inconclusive)"}, {"measurement": "AC50", "setting": "[7]", "value": "8.91 µM (inconclusive)"}]}
{"smiles": "CC1SC(N/N=C/c2cccc([N+](=O)[O-])c2)=NC1=O", "note": "(stereo not drawn)", "values": [{"measurement": "AC50", "setting": "[2]", "value": "2.38 µM (active)"}]}
{"smiles": "CN1C(=O)/C(=C/c2cccc(Cl)c2)Sc2ccc(C(=O)NCc3cccnc3)cc21", "values": [{"measurement": "AC50", "setting": "[2]", "value": "1.63 µM (active)"}]}
{"smiles": "O=c1c(-c2cc(F)cc(F)c2)nc2cnc(N3CCNCC3)nc2n1CCc1ccccc1", "values": [{"measurement": "AC50", "setting": "[1]", "value": "20 µM (inconclusive)"}, {"measurement": "AC50", "setting": "[6]", "value": "20 µM (inconclusive)"}]}
{"smiles": "O=C(CSc1nnc(-c2ccco2)n1-c1ccccc1)NCc1ccco1", "values": [{"measurement": "AC50", "setting": "[1]", "value": "14.1 µM (inconclusive)"}]}
{"smiles": "c1cc(NC2CC2)nc(-c2ccoc2)n1", "values": [{"measurement": "AC50", "setting": "[1]", "value": "39.8 µM (inconclusive)"}]}
